This is an account of results in paper PMC10539439 (Pharmacological Reports, 2023).

The nature of data set [1]: Distribution in brain after ip administration. The format is in vivo, rat. To be noted: brain; for concentration in brain (single sample): individual samples 1-3. As for the experimental part: (§1) For the pharmacokinetic study, a group of 56 adult male rats (Wistar, 220–250 g, […]) were used in the experiment. Animals were purchased from the Animal House of the Faculty of Pharmacy of Jagiellonian University Medical College, Krakow, Poland. […] These were then given through an intraperitoneally injections (ip) at a dose of 0.3 mg/kg and 0.4 mg/kg, respectively. Blood samples were collected at 0 min (predose), 5 min, 15 min, 30 min, 60 min, 120 min, and 240 min after compound administration. Blood and brain samples were collected under general anesthesia induced by ip injections of 50 mg/kg ketamine plus 8 mg/kg xylazine. Blood samples were taken in heparinized tubes and immediately centrifuged at 3500 rpm for 10 min, and plasma was collected. Brain and plasma samples were immediately frozen at – 80 ℃ for LC/MS/MS analysis. All experimental procedures were carried out according to EU Directive 2010/63/EU and approved by the I Local Ethics Committee for Animal Experiments of the Jagiellonian University in Krakow, Poland (No. 94/2016).
(§2) The pharmacokinetic parameters were calculated using a non-compartmental approach from the average concentration values, using Phoenix WinNonlin software (Certara, Princeton, NJ 08540 USA). The first-order elimination rate constant (λz) was calculated by linear regression of time versus log concentration. Next, the area under the mean plasma and the concentration in the brain versus the time curve (AUC0→t) were estimated using the log-linear trapezoidal rule (Eq. 1), where Cn is the concentration of the last sampling of each compound1 AUC0→t=∑i=1n(Ci+Ci+1)/2·ti+1-ti+Cn/λz.
(§3) The quantification of compounds in plasma and brain samples was performed using the Sciex API 3200 triple quadrupole mass spectrometer (Concord, Ontario, Canada) equipped with an electrospray (ESI) ionization interface. This instrument was coupled to an Elite LaChrom (Hitachi, USA) HPLC system. Data acquisition and processing were performed using Sciex Analyst 1.5.2 data collection and integration software. After preparation, the samples were injected (20 µL) onto XBridge C18 (2.1 mm × 30 mm, 3.5 μm, Waters, Milford, Massachusetts, USA) analytical column. The mobile phase consisted of 0.1% formic acid in acetonitrile (A) and 0.1% formic acid in water (B) was delivered in a gradient elution starting with 90% of eluent B, increasing for 2 min to 90% of eluent A, maintained for 3 min, and then returned for 5 min to 90% of eluent B, and maintained 90% of eluent B during 5 min at a flow rate of 300 µL/min. The total analysis time was 10 min. […] The ion spray source settings were as follows: spray voltage: 5.5 kV, heater temperature: 400 °C, curtain gas: 10 psi, source gas 1: 20 psi, and source gas 2: 20 psi.
Further dilutions were performed using the same solvent to prepare working standard solutions of the analyte at the following concentrations: 0.025, 0.05, 0.1, 0.25, 0.5, 1.0, 2.5, 5.0, 10, 25, and 50 µg/mL for calibration curve samples (CC) and 0.025, 0.075, 2.2, and 4.5 µg/mL for quality control samples (QC). To prepare samples for calibration curve or quality control samples, 45 µL of the matrix (plasma or brain homogenate) was added with 5 µL of internal standard solution (1 µg/mL) obtaining the final concentration of 100 ng/mL and 5 µL of standard working solutions at the needed CC or QC concentration levels. After the addition of the standard solution, the samples were mixed and purified.
A sample volume of 50 µL of plasma or brain homogenate was transferred to the clean Eppendorf tube and spiked with 5 µL of IS solution (1 µg/mL) obtaining the final concentration of 100 ng/mL. After 5 min of mixing (1500 rpm) proteins were precipitated using 200 µL ACN. After 10 min of sample shaking (1500 rpm), the incubation step was performed (10 min, 4 °C). The samples were then centrifuged (10,000 rpm, 10 min, 4 °C) and the supernatant was transferred to chromatographic vials for LC/MS/MS analysis.

Data set [2] can be described thus: Pharmacokinetics in plasma after ip administration. To be noted: plasma; for concentration in plasma (single sample): individual samples 1-3. Type of data set: in vivo, rat. As for the experimental part:
as §1, with “Poland. During the habituation period, the groups of 4 rats were kept in a plastic cage at a controlled room temperature (22 ± 2 ℃), humidity (55 ± 10%), full-spectrum cold white light (350–400 lx), in 12 h light/dark cycles (the lights on at 7:00 am, and off at 19:00 pm), and had free access to standard laboratory pellet and tap water.” for “Poland.”
as §2
The area under the first-moment curve (AUMC0→t) was estimated by calculating of the total area under the first-moment curve using Eq. 2, where tn is the time of last sampling2 AUMC0→t=∑i=1n(ti·Ci+ti+1·Ci+1)/2·ti+1-ti+(tn·Cn)/λz+Cn/λz2.
Mean residence time (MRT, Eq. 3) was calculated as3 MRT=AUMC0→t/AUC0→t.
Total clearance (ClT, Eq. 4) was calculated as4 C1T=F·Di.p./AUC0→t.
as §3
Further dilutions were performed using the same solvent to prepare working standard solutions of the analyte at the following concentrations: 0.025, 0.05, 0.1, 0.25, 0.5, 1.0, 2.5, 5.0, 10, 25, and 50 µg/mL for calibration curve samples (CC) and 0.025, 0.075, 2.2, and 4.5 µg/mL for quality control samples (QC). […]

Values joined by “and” are separate entries in the source; they are usually repeats but may differ in a detail not shown here. Equal entries are not always repeated.

Take `Cl.N=C(N)N/N=C/c1c(Cl)cc(O)cc1Cl` [HGB]: the “concentration in brain (single sample)” value was 14.9497 ng/g and 11.5414 ng/g and 13.5496 ng/g in data set [1] (5 min); 59.5505 ng/g and 64.4857 ng/g and 70.3065 ng/g in data set [1] (15 min); 29.8349 ng/g and 23.7225 ng/g and 18.0636 ng/g in data set [1] (30 min); 5.077 ng/g and 3.611 ng/g and 4.9468 ng/g in data set [1] (60 min); 3.263 ng/g and 4.746 ng/g and 3.8221 ng/g in data set [1] (120 min); 2.689 ng/g and 4.759 ng/g and 2.17 ng/g in data set [1] (240 min). The “concentration in brain (mean)” value in data set [1] (5 min after administration) turned out to be 13.3469 ng/g; in data set [1] (15 min after administration), 64.7809 ng/g; in data set [1] (30 min after administration) it was 23.8737 ng/g; in data set [1] (60 min after administration), 4.545 ng/g; in data set [1] (120 min after administration), 3.944 ng/g; in data set [1] (240 min after administration), 3.206 ng/g. Also, the “concentration in plasma (single sample)” value was 0.041279 µg/mL and 0.0546155 µg/mL and 0.0668757 µg/mL in data set [2] (5 min); 0.105888 µg/mL and 0.100591 µg/mL and 0.095109 µg/mL in data set [2] (15 min); 0.0160042 µg/mL and 0.0239125 µg/mL and 0.0205783 µg/mL in data set [2] (30 min); 0.044699 µg/mL and 0.0419435 µg/mL and 0.0391715 µg/mL in data set [2] (60 min); 0.0101897 µg/mL and 0.006772 µg/mL and 0.009 µg/mL in data set [2] (120 min); 0.005591 µg/mL and 0.008595 µg/mL and 0.0053874 µg/mL in data set [2] (240 min). In addition, the “concentration in plasma (mean)” value in data set [2] (5 min after administration) was determined as 0.0542567 µg/mL; in data set [2] (15 min after administration) it was 0.10053 µg/mL; in data set [2] (30 min after administration) it was 0.020165 µg/mL; in data set [2] (60 min after administration), 0.041938 µg/mL; in data set [2] (120 min after administration), 0.0086536 µg/mL; in data set [2] (240 min after administration), 0.006524 µg/mL.
